Measured values taken from patent US5536717A, “7-[4-(substituted amino)-2-butynl]benzo[B]pyrrolo[3,2,1-JK]-[1,4]benzodiazepin-6-ones” (Hoechst Marion Roussel Inc., priority 1993, dated 1996).

Legend:
mice = assay: 2-phenyl-1,4-benzoquinone-induced writhing test in mice; type: in vivo; conditions: phenylquinone writhing
Source text: The compounds of Formula I of the present invention are also useful as analgesic agents due to their ability to alleviate pain in mammals.

serotonergic system = assay: L-5-hydroxytryptophan potentiation in rats; type: in vivo; conditions: male Wistar rats, i.p.; for ED50: Rattus norvegicus, ip, forelimb clonus after pargyline + 5-HTP; for % Potentiation: @ 20 mg/kg, normalized relative to vehicle control
Experimental: According to the monoamine hypothesis of depression, compounds exert antidepressant activity because they are capable of enhancing central noradrenergic and/or serotonergic function (Shtee and […] 1971; Douglas 1975; Lingjaerde 1973). This procedure is used to evaluate enhanced activity of the serotonergic system. Groups of six male Wistar rats (150-200 g) are used in this test procedure. […] Thirty minutes before the 5-HTP administration, drugs are prepared and dosed using distilled water and, if insoluble, a suitable surfactant is added. Control groups receive vehicle. Drugs are routinely administered i.p. at a dosage volume of 10 ml/kg. L-5-hydroxytrpytophan (Calbiochem-Behring Corp.) is prepared at 1.0 mg/kg in distilled water and is administered i.p. in volumes proportional to 10 ml/kg. Fifteen minutes post-5-HTP treatment, each animal is observed for 10 seconds. Animal observations and 5-HTP administration are done in the presence of "white noise". In a dose range, drugs are administered in a randomized manner. […] Potentiation is expressed as normalized percent potentiation relative to vehicle control. […] An ED50 and 95% confidence limit are determined by Litchfield and Wilcoxon.

Which “Inhibition at 20 mg/kg, s.c.” value (mice) does the source give for CN1CCN(CC#CCN2C(=O)c3cccc4c3N(CC4)c3ccccc32)CC1.O=C(O)/C=C/C(=O)O [1,2-Dihydro-7-[4-(4-methyl-1-piperazinyl)-2-butynyl]benzo[b]pyrrolo[3,2,1-jk][1,4]benzodiazepin-6-one fumarate] here?
Its value is 44%.

Which ED50 (serotonergic system) does the source give for CC1CCN(CC#CCN2C(=O)c3cccc4c3N(CC4)c3ccccc32)CC1 [1,2-Dihydro-7-[4-(4-methyl-1-piperidinyl)-2-butynyl]benzo[b]pyrrolo[3,2,1-jk][1,4]benzodiazepin-6-one hemifumarate] here?
The ED50 was 25.3 mg/kg.

CN1CCN(CC#CCN2C(=O)c3cccc4c3N(CC4)c3ccc(Br)cc32)CC1.O=C(O)/C=C/C(=O)O [9-Bromo-1,2-dihydro-7-[4-(4-methyl-1-piperazinyl)-2-butynyl]benzo[b]pyrrolo[3,2,1-jk][1,4]benzodiazepin-6-one fumarate] was tested. Which “% Potentiation” value (serotonergic system) did it give?
The value was 50%.

How did the “Inhibition at 20 mg/kg, s.c.” value (mice) turn out when CC1CCN(CC#CCN2C(=O)c3cccc4c3N(CC4)c3ccc(Br)cc32)CC1 [9-Bromo-1,2-dihydro-7-[4-(4-methyl-1-piperidinyl)-2-butynyl]benzo[b]pyrrolo[3,2,1-jk][1,4]benzodiazepin-6-one hemifumarate] was run?
The value was 41%.

COc1ccccc1N1CCN(CC#CCN2C(=O)c3cccc4c3N(CC4)c3ccc(Br)cc32)CC1 [9-Bromo-1,2-dihydro-7-[4-[4-(2-methoxyphenyl)-1-piperazinyl]-2-butynyl]-2-butynyl]benzo[b]pyrrolo[3,2,1-jk][1,4]benzodiazepin-6-one] was tested. Which “% Potentiation” value (serotonergic system) did it give?
Its value is 50%.

How did the “Inhibition at 20 mg/kg, s.c.” value (mice) turn out when O=C1c2cccc3c2N(CC3)c2ccc(Br)cc2N1CC#CCN1CCC(n2c(=O)[nH]c3ccccc32)CC1 [9-Bromo-1,2-dihydro-7-[4-[4-(2-oxo-1H-benzimidazol-3-yl)-1-piperidinyl-2-butynyl]benzo[b]pyrrolo[3,2,1-jk][1,4]benzodiazepin-6-one monohydrate] was run?
The value was 42%.

CN(C)CCC=C1c2ccccc2CCc2ccccc21 [Amitriptyline, reference compound] was tested. Which ED50 (serotonergic system) did it give?
Its ED50 is 7.1 mg/kg.

With CCC(=O)O[C@](Cc1ccccc1)(c1ccccc1)[C@H](C)CN(C)C [Propoxyphene, reference compound] as the compound, how does the ED50 (mice; Mus musculus, sc, read-out: ED50 (writhing inhibition)) read?
Its ED50 is 3.9 mg/kg.
